US6340704B1, “Cell differentiation inducing amide derivatives, their production and use” (Takeda Chemical Industries, Ltd., priority 1997, dated 2002)
Counter-ions that a name gives are not always drawn. Marks after values point to notes of the source that are not given here.

Tests used:
[1] = tested on: Mouse-derived MC3T3-E1 osteoblast cells; experiment: Induction of alkaline phosphatase (ALP) production in mouse osteoblastic cells, with or without 3 ng/ml BMP-4/7 heterodimer; assay type: cell-based; settings: 72 hours; for ALP Activity (1000 × A405 ± SD) BMP Addition: medium with 3 ng/ml BMP-4/7 heterodimer; for ALP Activity (1000 × A405 ± SD) BMP Non-Addition: no BMP
Method: Induction of Alkaline Phosphatase (ALP) Production in Mouse Osteoblastic Cells
Mouse-derived MC3T3-E1 osteoblast cells were seeded in a 96-well microtiter plate of α-minimum essential medium containing FCS (fetal calf serum) (8000 cells/well). After two days when the growth had become confluent, the test substance diluted to various concentrations in Table 1 with the medium either containing or not containing 3 ng/ml of BMP-4/7 heterodimer (described in Japanese Patent Application No. 111255/1994) was added, and the microtiter plate was further incubated for 72 hours. The plate was washed once with a physiological saline solution, followed by addition of a substrate solution. The resulting mixture was incubated at room temperature for 15 minutes, followed by addition of 0.05N NaOH to terminate the reaction. The absorbance at 405 nm was measured.

## Cc1c(C(N)=O)cc(-c2ccc3c(c2)OCO3)c2c3c(ccc12)OCO3 [Example 13, 9-(1,3-Benzodioxole-5-yl)-6-methyl-naphto[1,2-d]-1,3-dioxole-7-carboxamide]
other
  melting point: 237 to 239 °C

## Cc1c(C(N)=O)nc2ccc3c(c2c1-c1ccc2c(c1)OCO2)OCO3 [Example 22, 9-(1,3-Benzodioxole-5-yl)-8-methyl-1,3-dioxole[4,4-f]quinoline-7-carboxamide]
[1]; compound 0.01 μM
  ALP Activity (1000 × A405 ± SD) BMP Addition: 187 ± 3 1000 × A405
  ALP Activity (1000 × A405 ± SD) BMP Non-Addition: 135 ± 8* 1000 × A405
[1]; compound 0.1 μM
  ALP Activity (1000 × A405 ± SD) BMP Addition: 226 ± 6* 1000 × A405
  ALP Activity (1000 × A405 ± SD) BMP Non-Addition: 149 ± 11* 1000 × A405
[1]; compound 1 μM
  ALP Activity (1000 × A405 ± SD) BMP Addition: 326 ± 18* 1000 × A405
  ALP Activity (1000 × A405 ± SD) BMP Non-Addition: 190 ± 10* 1000 × A405

## CNC(=O)c1cc2ccc3c(c2c(-c2ccc(F)cc2)c1CO)OCO3 [Example 5, N-Methyl-9-(4-fluorophenyl)-8-hydroxymethyl-naphtho[1,2-d]-1,3-dioxole-7-carboxamide]
other
  melting point: 210 to 213 °C
[1]; compound 0.01 μM
  ALP Activity (1000 × A405 ± SD) BMP Addition: 170 ± 20 1000 × A405
  ALP Activity (1000 × A405 ± SD) BMP Non-Addition: 49 ± 1 1000 × A405
[1]; compound 0.1 μM
  ALP Activity (1000 × A405 ± SD) BMP Addition: 237 ± 14* 1000 × A405
  ALP Activity (1000 × A405 ± SD) BMP Non-Addition: 62 ± 3* 1000 × A405
[1]; compound 1 μM
  ALP Activity (1000 × A405 ± SD) BMP Addition: 431 ± 26* 1000 × A405
  ALP Activity (1000 × A405 ± SD) BMP Non-Addition: 157 ± 11* 1000 × A405

## CNC(=O)c1nc2ccc3c(c2c(-c2ccc4c(c2)OCO4)c1C)OCO3 [Example 23, N-methyl-9-(1,3-benzodioxole-5yl)-8-methyl-1,3-dioxolo [4,5-f]quinoline-7-carboxamide]
other
  melting point: 141 to 146 °C

## CNC(=O)c1cc(-c2ccc3c(c2)OCO3)c2c3c(ccc2c1)OCO3 [Example 15, N-Methyl-9-(1,3-benzodioxole-5-yl)-naphtho;[1,2,-d]-1,3-dioxole-7-carboxamide]
other
  melting point: 206 to 208 °C

## CNC(=O)c1nc2ccc(C)cc2c(-c2ccc(F)cc2F)c1CO [Example 10, N-Methyl-[3-hydroxymethyl-6-methyl-4-(2,4-difluorophenyl)quinoline]-2-carboxamide]
other
  melting point: 140 to 141 °C

## CNC(=O)c1cc2cc3c(cc2c(-c2ccc4c(c2)OCO4)c1CO)OCO3 [Example 7, N-Methyl-(1,3-benzodioxole-5-yl)-7-hydroxymethyl-naphto[2,3-d]-1,3-dioxole-6-carboxamide]
other
  melting point: 222 to 224 °C

## CNC(=O)c1cc2ccc3c(c2c(-c2ccc(Cl)cc2)c1CO)OCO3 [Example 3, N-Methyl-9-(4-chlorophenyl)-8-hydroxymethyl-naphtho[1,2-d]-1,3-dioxole-7-carboxamide]
other
  melting point: 202 to 204 °C

## CNC(=O)c1cc2ccc3c(c2c(-c2ccc(C)cc2)c1CO)OCO3 [Example 6, N-Methyl-9-(4-methylphenyl)-8-hydroxymethyl-naphtho[1,2-d]-1,3-dioxole-7-carboxamide]
other
  melting point: 210 to 212 °C
[1]; compound 0.01 μM
  ALP Activity (1000 × A405 ± SD) BMP Addition: 177 ± 14 1000 × A405
  ALP Activity (1000 × A405 ± SD) BMP Non-Addition: 51 ± 2 1000 × A405
[1]; compound 0.1 μM
  ALP Activity (1000 × A405 ± SD) BMP Addition: 248 ± 6* 1000 × A405
  ALP Activity (1000 × A405 ± SD) BMP Non-Addition: 74 ± 1* 1000 × A405
[1]; compound 1 μM
  ALP Activity (1000 × A405 ± SD) BMP Addition: 459 ± 35* 1000 × A405
  ALP Activity (1000 × A405 ± SD) BMP Non-Addition: 168 ± 1* 1000 × A405

## CNC(=O)c1nc2ccc(C)cc2c(-c2ccccc2)c1CO [Example 9, N-methyl-(3-hydroxmethyl-6-methyl-4-phenylquinoline)-2-carboxamide]
other
  melting point: 136 to 137 °C

## CNC(=O)c1cc2ccc3c(c2c(-c2ccc(OC(F)(F)F)cc2)c1CO)OCO3 [Example 24, N-Methyl-9-(4-trifluoromethoxyphenyl)-8-hydroxymethylnaphtho[1,2-d]-1,3-dioxol-7-carboxamide]
other
  melting point: 195 to 197 °C

## CNC(=O)c1cc2ccc3c(c2c(-c2ccc4ccccc4c2)c1CO)OCO3 [Example 4, N-Methyl-9-(2-naphthyl)-8-hydroxymethyl-naphtho[1,2-d]-1,3-dioxole-7-carboxamide]
other
  melting point: 207 to 210 °C
[1]; compound 0.01 μM
  ALP Activity (1000 × A405 ± SD) BMP Addition: 301 ± 8 1000 × A405
  ALP Activity (1000 × A405 ± SD) BMP Non-Addition: 86 ± 3 1000 × A405
[1]; compound 0.1 μM
  ALP Activity (1000 × A405 ± SD) BMP Addition: 389 ± 25* 1000 × A405
  ALP Activity (1000 × A405 ± SD) BMP Non-Addition: 108 ± 7* 1000 × A405
[1]; compound 1 μM
  ALP Activity (1000 × A405 ± SD) BMP Addition: 554 ± 49* 1000 × A405
  ALP Activity (1000 × A405 ± SD) BMP Non-Addition: 168 ± 4* 1000 × A405

## NC(=O)c1cc(-c2ccc(C(F)(F)F)cc2)c2c3c(ccc2c1)OCO3 [Example 12, 9-(4-Trifluromethylphenyl)-naphto[1,2-d]-1,3-dixole-7-carboxamide]
other
  melting point: 207 to 209 °C

## O=C(c1cc(-c2ccc(F)cc2)c2c3c(ccc2n1)OCO3)N1CCN(Cc2ccccc2)CC1 [Example 48, N-Benzyl-N-[9-(4-fluorophenyl)-1,3-dioxolo[4,5-f]quinoline-7-carbonyl]piperazine]
other
  melting point: 147 to 148 °C

## CNC(=O)c1cc2ccc3c(c2c(-c2ccc4c(c2)OCO4)c1CO)OCO3 [Example 1, N-Methyl-9-(1,3-benzodioxole-5-yl)-8-hydroxymethylnaphtho[1,2-d]-1,3-dioxole-7-carboxamide]
other
  melting point: 233 to 235 °C
[1]; compound 0.01 μM
  ALP Activity (1000 × A405 ± SD) BMP Addition: 193 ± 15 1000 × A405
  ALP Activity (1000 × A405 ± SD) BMP Non-Addition: 50 ± 5 1000 × A405
[1]; compound 0.1 μM
  ALP Activity (1000 × A405 ± SD) BMP Addition: 213 ± 5* 1000 × A405
  ALP Activity (1000 × A405 ± SD) BMP Non-Addition: 58 ± 5* 1000 × A405
[1]; compound 1 μM
  ALP Activity (1000 × A405 ± SD) BMP Addition: 386 ± 30* 1000 × A405
  ALP Activity (1000 × A405 ± SD) BMP Non-Addition: 102 ± 5* 1000 × A405

## CN(C)CCCNC(=O)c1cc(-c2ccc3c(c2)OCO3)c2c3c(ccc2c1)OCO3 (as salt: hydrochloride) [Example 19, N-(3-Dimethylaminopropyl)-9-(1,3-benzodioxole-5-yl)-naphtho [1,2-d]-1,3-dioxole-7-carboxamide hydrochloride]
other
  melting point: 233 to 240 °C

## CN(C)C(=O)c1cc(-c2ccc3c(c2)OCO3)c2c3c(ccc2c1)OCO3 [Example 16, N,N-Dimethyl-9-(1,3,-benzodioxole-5-yl)-naphtho[1,2-d]-1,3,-dioxole-7-carboxamide]
other
  melting point: 160 to 161 °C

## COc1ccc(-c2cc(C(N)=O)cc3ccc4c(c23)OCO4)cc1 [Example 11, 9(4-Methoxyphenyl)-naphtho[1,2,-d]-1,3,-dioxole-7-carboxamide]
other
  melting point: 187 to 189 °C

## CNC(=O)c1cc(-c2ccc(F)cc2)c2c3c(ccc2n1)OCO3 [Example 46, 9-(4-Fluorophenyl)-N-methyl-1,3-dioxolo[4,5-F]quinoline-7-carboxamide]
other
  melting point: 233 to 235 °C

## CNC(=O)c1cc2ccc3c(c2c(-c2ccc(OC)cc2)c1CO)OCO3 [Example 2, N-Methyl-9-(4-methoxyphenyl)-8-hydroxymethyl-naphtho[1,2-d]-1,3-dioxole-7-carboxamide]
other
  melting point: 187 to 190 °C
[1]; compound 0.01 μM
  ALP Activity (1000 × A405 ± SD) BMP Addition: 323 ± 13 1000 × A405
  ALP Activity (1000 × A405 ± SD) BMP Non-Addition: 80 ± 2 1000 × A405
[1]; compound 0.1 μM
  ALP Activity (1000 × A405 ± SD) BMP Addition: 354 ± 15* 1000 × A405
  ALP Activity (1000 × A405 ± SD) BMP Non-Addition: 95 ± 7* 1000 × A405
[1]; compound 1 μM
  ALP Activity (1000 × A405 ± SD) BMP Addition: 478 ± 17* 1000 × A405
  ALP Activity (1000 × A405 ± SD) BMP Non-Addition: 162 ± 18* 1000 × A405

## NC(=O)c1nc2ccc3c(c2c(-c2ccc4c(c2)OCO4)c1CO)OCO3 [Example 8, 9(1,3-Benzodioxole-5-yl)-8hydroxymethyl-1,3-dioxolo[4,5-f]quinoline-7-carboxamide]
[1]; compound 0.01 μM
  ALP Activity (1000 × A405 ± SD) BMP Addition: 426 ± 28 1000 × A405
  ALP Activity (1000 × A405 ± SD) BMP Non-Addition: 105 ± 22 1000 × A405
[1]; compound 0.1 μM
  ALP Activity (1000 × A405 ± SD) BMP Addition: 477 ± 15* 1000 × A405
  ALP Activity (1000 × A405 ± SD) BMP Non-Addition: 134 ± 12 1000 × A405
[1]; compound 1 μM
  ALP Activity (1000 × A405 ± SD) BMP Addition: 570 ± 63* 1000 × A405
  ALP Activity (1000 × A405 ± SD) BMP Non-Addition: 186 ± 26 1000 × A405

## NC(=O)c1cc(-c2ccc(OC(F)(F)F)cc2)c2c3c(ccc2c1)OCO3 [Example 25, 9-(4-Trifluoromethoxyphenyl)naphtho[1,2-d]-1,3-dioxol-7-carboxamide]
other
  melting point: 188 to 190 °C

## NC(=O)c1cc(-c2ccc3c(c2)OCO3)c2c3c(ccc2c1)OCO3 [Example 14, 9-(1,3-Benzodioxole-5-yl)-naphtho[1,2-d]-1,3-dioxole-7-carboxamide]
other
  melting point: 267 to 269 °C
